Source: ChEMBL document CHEMBL1201862, “PubChem BioAssay data set” (2004)
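Five compound concentrations were applied to cells in 96-well plates for 48 hours; endpoints were derived by simple linear interpolation of the resulting dose-response curve. GI50 marks 50% less growth.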 The source made the active and inactive calls. Rule as the data show it: active = GI50 up to about 1.1 µM and inactive = higher.

Key:
Test in all cases: NCI anticancer screen, dose series, 48 h
DLD-1 = tested on: DLD-1
A549 = tested on: A549
SNB-75 = tested on: SNB-75
SW-620 = tested on: SW-620
SR = tested on: SR
HT-29 = tested on: HT-29
SK-MEL-2 = tested on: SK-MEL-2
UO-31 = tested on: UO-31
NCI-H226 = tested on: NCI-H226
SN12C = tested on: SN12C
M19-MEL = tested on: M19-MEL
HCC 2998 = tested on: HCC 2998
HOP-92 = tested on: HOP-92
HCT-116 = tested on: HCT-116
HL-60 = tested on: HL-60
DMS-114 = tested on: DMS-114
Malme-3M = tested on: Malme-3M
NCI-H522 = tested on: NCI-H522

Measured: GI50

N#CCCN(CCC#N)c1ccc(C(Sc2ccccc2)C(NC(=O)c2cc([N+](=O)[O-])ccc2Cl)C(=O)Sc2ccccc2)cc1 (configuration not stated)
inactive: DLD-1 2.52 µM | A549 2.88 µM | SNB-75 5.41 µM | SW-620 2.19 µM | SR 1.51 µM | HT-29 4.1 µM | SK-MEL-2 2.3 µM | UO-31 2.2 µM | NCI-H226 2.02 µM | SN12C 1.88 µM | M19-MEL 5.36 µM | HCC 2998 6.65 µM | HOP-92 5.58 µM | HCT-116 2.17 µM | HL-60 1.4 µM | DMS-114 2.37 µM | Malme-3M 7.33 µM | NCI-H522 2.36 µM

COc1c(C)c2c(c3c1c(=O)c1ccccc1n3C)C=CC(C)(C)O2
inactive: DLD-1 34.5 µM | A549 5.41 µM | SNB-75 20.4 µM | SW-620 38 µM | SR 12.5 µM | HT-29 14 µM | SK-MEL-2 25 µM | UO-31 26.5 µM | NCI-H226 36.7 µM | SN12C 30.2 µM | M19-MEL 31.7 µM | HCC 2998 28.4 µM | HOP-92 31.9 µM | HCT-116 18.5 µM | HL-60 9.73 µM | DMS-114 14.5 µM | Malme-3M 25.8 µM | NCI-H522 20.9 µM

COC(=O)C1=C(C(=O)OC)C2(OC(C)=O)c3ccccc3-c3ccccc3C12 (configuration not stated)
inactive: DLD-1 1.7 µM | A549 17.3 µM | SNB-75 11.7 µM | SW-620 1.66 µM | SR 2.33 µM | HT-29 5.47 µM | SK-MEL-2 14.5 µM | UO-31 4.68 µM | NCI-H226 16.5 µM | SN12C 4.89 µM | M19-MEL 4.56 µM | HCC 2998 16.7 µM | HOP-92 1.77 µM | HCT-116 3.66 µM | HL-60 4.85 µM | DMS-114 5.37 µM | Malme-3M 2.25 µM | NCI-H522 1.44 µM

O=C(O)CCC(=O)OCN1C(=O)C2C3C=CC(C2C1=O)C1C2C(=O)N(COC(=O)CCC(=O)O)C(=O)C2C31 (configuration not stated)
inactive: DLD-1 > 57.7 µM | A549 > 100 µM | SNB-75 > 95.7 µM | SW-620 38.4 µM | SR 30.8 µM | HT-29 > 100 µM | SK-MEL-2 > 100 µM | UO-31 98.6 µM | NCI-H226 > 100 µM | SN12C > 86.5 µM | M19-MEL > 61.1 µM | HCC 2998 > 100 µM | HOP-92 > 100 µM | HCT-116 > 37.8 µM | HL-60 23.4 µM | DMS-114 > 48.1 µM | Malme-3M > 100 µM | NCI-H522 > 47 µM
